# Measured values from PMC13350973, “Allosteric ensembles elucidate mechanisms of inhibition in the human soluble epoxide hydrolase” (Communications Biology, 2026).
# Where a chain is given by its changes, count along the chain named.
# How the values were obtained:
# [1] = biological target: T1, human soluble epoxide hydrolase (sEH) C-terminal domain (Homo sapiens, UniProt P34913, C423S); experiment: single injection method kinetic ITC (KM); assay type: biochemical
# T1 construct: gene EPHX2; CTD, amino acids 230–555
# T1 sequence (P34913 230-555 C423S): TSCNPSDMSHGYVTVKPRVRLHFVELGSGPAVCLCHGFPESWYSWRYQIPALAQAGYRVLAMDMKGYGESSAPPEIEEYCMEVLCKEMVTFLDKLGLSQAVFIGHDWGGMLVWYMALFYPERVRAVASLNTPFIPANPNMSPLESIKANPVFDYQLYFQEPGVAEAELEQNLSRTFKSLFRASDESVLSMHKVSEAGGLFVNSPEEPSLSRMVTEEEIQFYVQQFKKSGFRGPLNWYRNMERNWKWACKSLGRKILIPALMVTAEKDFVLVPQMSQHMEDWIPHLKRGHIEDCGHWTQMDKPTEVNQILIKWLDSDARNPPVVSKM
# [2] = biological target: T2, human soluble epoxide hydrolase (sEH) C-terminal domain (Homo sapiens, UniProt P34913); experiment: single injection method kinetic ITC (KM); assay type: biochemical
# T2 construct: gene EPHX2; CTD, amino acids 230–555
# T2 sequence (P34913 230-555): T1 sequence (P34913 230-555 C423S) with S194C
# [3] = biological target: T3, human soluble epoxide hydrolase (sEH) C-terminal domain (Homo sapiens, UniProt P34913, C522S); experiment: single injection method kinetic ITC (KM); assay type: biochemical
# T3 construct: gene EPHX2; CTD, amino acids 230–555
# T3 sequence (P34913 230-555 C522S): T1 sequence (P34913 230-555 C423S) with S194C, C293S
# [4] = biological target: T4, human soluble epoxide hydrolase (sEH) C-terminal domain, M3 mutant (Homo sapiens, UniProt P34913, R410A/C423S/S439A/R440A/K495A); experiment: UV spectra of washed covalent adduct of purified protein; fluorometric PHOME specific activity assay; assay type: binding
# T4 construct: gene EPHX2; CTD, amino acids 230–555
# T4 sequence (P34913 230-555 R410A/C423S/S439A/R440A/K495A): T1 sequence (P34913 230-555 C423S) with R181A, S210A, R211A, K266A
# [5] = biological target: T2, human soluble epoxide hydrolase (sEH) C-terminal domain; experiment: spectrofluorometric hydrolysis assay with purified sEH CTD; assay type: biochemical
structure (smiles),measurement,setting,value
CCCCCC1OC1C/C=C\C/C=C\C/C=C\CCCC(=O)O (centres unmarked) [14(15)-EET],Km,[1],14.6 ± 0.52 µM
same,Km,[2],11.2 ± 0.46 µM
same,Km,[3],24 ± 2.58 µM
CCCCC/C=C/C=C1/C(=O)C=C[C@@H]1C/C=C\CCCC(=O)O [15d-PGJ2],UV spectra of washed covalent adduct of purified protein; fluorometric PHOME spe,[4],8.2 fold reduction in enzymatic specific activity
"COc1ccc2cc(C(C#N)OC(=O)CC3OC3c3ccccc3)ccc2c1 (centres unmarked) [PHOME, 3-phenyl-cyano(6-methoxy-2-naphthalenyl)methylester-2-oxiraneacetic acid]",spectrofluorometric hydrolysis assay with purified sEH CTD,[5],"(PHOME), which upon sEH enzymatic hydrolysis releases the fluorescent product 6-methoxy-2-naphtaldeyde (6M2N)"
